Data on 40 compounds can be found in ChEMBL document CHEMBL4715866, “A Chemical Probe for Dark Kinase STK17B Derives Its Potency and High Selectivity through a Unique P-Loop Conformation” (J Med Chem, 2020).

Converted amounts (≈) assume the structure as drawn.

Broadly, the IC50 is the point on the concentration scale where inhibition reaches its midpoint. Read a high IC50 as a need for much substance. In general, Kd refers to the constant that tells how readily two partners part at equilibrium. Higher therefore signals lower affinity.

Data set [1] addresses T1, Serine/threonine-protein kinase 17B (Homo sapiens, UniProt O94768).
T1 sequence (O94768 whole entry): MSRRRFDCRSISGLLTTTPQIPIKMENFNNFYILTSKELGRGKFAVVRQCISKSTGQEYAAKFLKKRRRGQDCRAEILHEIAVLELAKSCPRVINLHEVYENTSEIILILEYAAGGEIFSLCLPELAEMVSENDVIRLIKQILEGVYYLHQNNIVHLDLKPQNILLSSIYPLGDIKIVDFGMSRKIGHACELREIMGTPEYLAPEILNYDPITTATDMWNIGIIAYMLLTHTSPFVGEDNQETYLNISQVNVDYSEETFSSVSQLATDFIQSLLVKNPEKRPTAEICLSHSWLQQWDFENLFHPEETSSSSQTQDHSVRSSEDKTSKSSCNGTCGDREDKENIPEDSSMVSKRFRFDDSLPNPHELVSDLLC

Data set [2] deals with T1, Serine/threonine-protein kinase 17B. Description: Inhibition of N-terminal His-tagged STK17B kinase domain (25 to 329 residues) (unknown origin) expressed in Escherichia coli incubated for 90 mins by Kinase seeker split luciferase assay.
In data set [3] the target is T2, Serine/threonine-protein kinase 17A (Homo sapiens, UniProt Q9UEE5).
T2 sequence (Q9UEE5 whole entry): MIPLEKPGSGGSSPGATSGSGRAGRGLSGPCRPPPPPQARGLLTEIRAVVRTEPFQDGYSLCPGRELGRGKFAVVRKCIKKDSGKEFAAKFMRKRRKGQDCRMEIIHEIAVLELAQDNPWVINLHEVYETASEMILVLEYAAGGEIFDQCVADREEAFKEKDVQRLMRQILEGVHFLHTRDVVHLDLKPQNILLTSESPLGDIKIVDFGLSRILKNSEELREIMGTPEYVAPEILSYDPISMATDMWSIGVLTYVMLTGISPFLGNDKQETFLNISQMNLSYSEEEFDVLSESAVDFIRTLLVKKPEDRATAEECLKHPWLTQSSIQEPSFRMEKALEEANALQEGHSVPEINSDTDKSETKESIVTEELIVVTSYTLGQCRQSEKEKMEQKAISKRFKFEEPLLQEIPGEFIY
In words: Binding affinity to STK17A (unknown origin) by KINOMEscan scanMAX assay.

A short description of data set [4]: Stability in mouse liver microsomes assessed as compound remaining at 0.1 mM in presence of NADPH regeneration system after 30 mins by LC-MS/MS analysis. The conditions noted are these: read-out: Stabilty. It is filed as ADME, Microsome. Background: Liver microsomes are a subcellular fraction often used to study metabolism.
Data set [5] in a line: Kinetic solubility in pH 7.4 PBS. It is filed as physicochemical. The conditions noted are these: read-out: Kinetic_solubility.
For data set [6], the target named is T1, Serine/threonine-protein kinase 17B. Description: Binding affinity to N-terminal His-tagged STK17B kinase domain (25 to 329 residues) (unknown origin) expressed in Escherichia coli by KINOMEscan scanMAX assay.
The target of data set [7] is T2, Serine/threonine-protein kinase 17A. In words: Inhibition of STK17A (unknown origin) incubated for 90 mins by Kinase seeker split luciferase assay.
Data set [8] has as its target T3, Homeodomain-interacting protein kinase 4 (Homo sapiens, UniProt Q8NE63).
T3 sequence (Q8NE63 whole entry): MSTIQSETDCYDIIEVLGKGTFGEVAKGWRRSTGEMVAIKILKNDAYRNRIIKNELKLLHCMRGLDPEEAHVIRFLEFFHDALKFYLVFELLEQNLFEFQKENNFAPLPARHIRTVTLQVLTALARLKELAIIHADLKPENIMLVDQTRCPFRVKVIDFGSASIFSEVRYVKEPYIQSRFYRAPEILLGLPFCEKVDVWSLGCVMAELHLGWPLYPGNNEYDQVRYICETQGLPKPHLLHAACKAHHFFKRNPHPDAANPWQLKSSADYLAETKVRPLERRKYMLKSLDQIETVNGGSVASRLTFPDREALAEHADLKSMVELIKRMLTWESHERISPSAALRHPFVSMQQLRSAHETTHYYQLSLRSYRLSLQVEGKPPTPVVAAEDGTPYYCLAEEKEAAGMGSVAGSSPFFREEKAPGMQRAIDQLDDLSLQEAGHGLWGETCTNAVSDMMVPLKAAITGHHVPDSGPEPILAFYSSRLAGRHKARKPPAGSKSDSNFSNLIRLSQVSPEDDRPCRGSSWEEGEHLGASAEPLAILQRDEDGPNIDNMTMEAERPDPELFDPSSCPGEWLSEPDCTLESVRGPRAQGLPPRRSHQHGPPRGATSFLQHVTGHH
Description: Binding affinity to human HIPK4 by KINOMEscan scanMAX assay.

For the compound `O=C(O)COc1ncnc2cc(-c3ccc(Cl)cc3)sc12`, the IC50 in data set [1] was above 10000 nM.

With `O=C(O)CSc1ncnc2cc(-c3ccc(Cl)cc3)sc12`, the IC50 came to 39 nM in data set [2] and 680 nM in data set [1].

Consider `N#Cc1ccc(-c2cc3ncnc(SCC(=O)O)c3s2)cc1`, for which the IC50 in data set [2] is 35 nM; in data set [1] it was 3200 nM.

For `CSc1ccc(-c2cc3ncnc(SCC(=O)O)c3s2)cc1`, in data set [3], the Kd is 230 nM. In addition, the remaining at 0.5 h, 100 µM in data set [4] came to 0%. For the same compound, the IC50 in data set [2] stood at 20 nM; in data set [1], 210 nM. Also, the solubility kinetic in data set [5] worked out at 42 µg/mL (≈ 121 µM).

`CC(=O)Nc1ccc(-c2cc3ncnc(SCC(=O)O)c3s2)cc1`: the IC50 in data set [2] was 23 nM; in data set [1] it was above 10000 nM.

Take `O=C(O)CSc1ncnc2cc(-c3ccc(C4CC4)cc3)sc12`: the remaining at 0.5 h, 100 µM in data set [4] was determined as 66%. For the same compound, the IC50 in data set [2] is 62 nM; in data set [1], 530 nM. Further, in data set [5], the solubility kinetic was determined as 55 µg/mL (≈ 161 µM).

`CC(=O)c1ccc(-c2cc3ncnc(SCC(=O)O)c3s2)cn1`: the IC50 was 37 nM in data set [2] and above 10000 nM in data set [1].

`CC(C)Sc1ccc(-c2cc3ncnc(SCC(=O)O)c3s2)cc1`: the IC50 in data set [2] was 49 nM; in data set [1] it was above 10000 nM.

Take `O=C(O)CSc1ncnc2cc(-c3cccc(F)c3)sc12`: the IC50 worked out at 49 nM in data set [2] and 980 nM in data set [1].

Compound `CCOC(=O)CNc1ncnc2cc(-c3ccc(SC)cc3)sc12` registered an IC50 in data set [1] above 10000 nM.

For the compound `CC(=O)Nc1cccc(-c2cc3ncnc(SCC(=O)O)c3s2)c1`, the IC50 in data set [2] was 35 nM; in data set [1], above 10000 nM.

As for `CC(C)c1ccc(-c2cc3ncnc(SCC(=O)O)c3s2)cc1`, the remaining at 0.5 h, 100 µM in data set [4] amounted to 35%. Also, the IC50 in data set [2] was 59 nM; in data set [1], 550 nM. Also, in data set [5], the solubility kinetic was 23 µg/mL (≈ 66.8 µM).

As to `O=C(O)CSc1ncnc2cc(-c3ccc(F)c(F)c3)sc12`, the remaining at 0.5 h, 100 µM in data set [4] was 95%. The IC50 in data set [2] amounted to 74 nM; in data set [1], 820 nM. For the same compound, the solubility kinetic in data set [5] is 65 µg/mL (≈ 192 µM).

Take `COc1ccccc1-c1cc2ncnc(SCC(=O)O)c2s1`: the remaining at 0.5 h, 100 µM in data set [4] was found to be 24%. Besides, the IC50 was determined as 110 nM in data set [2] and 1700 nM in data set [1]. Further, the solubility kinetic in data set [5] turned out to be 69 µg/mL (≈ 208 µM).

Take `COc1cccc(-c2cc3c(SCC(=O)O)ncnc3s2)c1`: the IC50 in data set [1] is above 10000 nM.

With `CCc1ccc(-c2cc3ncnc(SCC(=O)O)c3s2)cc1`, the results for the IC50 in data set [2] and in data set [1] were 41 nM and 380 nM, respectively.

As for `O=C(O)CSc1ncnc2cc(-c3ccc(N4CCOCC4)cc3)sc12`, the remaining at 0.5 h, 100 µM in data set [4] worked out at 63%. For the same compound, the IC50 was determined as 14 nM in data set [2] and 720 nM in data set [1]. The solubility kinetic in data set [5] amounted to 61 µg/mL (≈ 157 µM).

Consider `CSc1ccc(-c2cc3c(SCC(=O)O)ncnc3s2)cc1`, for which the IC50 in data set [1] was above 10000 nM.

Consider `CSc1ccc(-c2cc3ncnc(SCC(=O)O)c3s2)cc1F`, for which the remaining at 0.5 h, 100 µM in data set [4] was 18%. Moreover, the IC50 came to 27 nM in data set [2] and 530 nM in data set [1]. For the same compound, the solubility kinetic in data set [5] came out at 52 µg/mL (≈ 142 µM).

For `O=C(O)CSc1ncnc2cc(-c3ccc(Cl)c(Cl)c3)sc12`, the IC50 in data set [2] came to 92 nM; in data set [1], 310 nM.

Regarding `COc1ccc(-c2cc3c(SCC(=O)O)ncnc3s2)cc1`, the IC50 in data set [1] was above 10000 nM.

In the case of `O=C(O)CSc1ncnc2sc(-c3ccc(Cl)c(Cl)c3)cc12`, in data set [1], the IC50 is above 10000 nM.

Consider `CC(=O)c1ccc(-c2cc3ncnc(SCC(=O)O)c3s2)cc1`, for which the IC50 in data set [2] came to 13 nM; in data set [1], 1500 nM.

In turn, `CCOC(=O)COc1ncnc2cc(-c3ccc(Cl)cc3)sc12` yielded an IC50 in data set [1] above 10000 nM.

Regarding `COc1ccc(-c2cc3ncnc(SCC(=O)O)c3s2)cc1F`, the remaining at 0.5 h, 100 µM in data set [4] stood at 88%. Besides, the results for the IC50 in data set [2] and in data set [1] were 18 nM and 700 nM, respectively. Moreover, the solubility kinetic in data set [5] stood at 49 µg/mL (≈ 140 µM).

`CSc1ccc(-c2cc3ncnc(NCC(=O)O)c3s2)cc1` showed an IC50 in data set [1] above 10000 nM.

As for `O=C(O)CSc1ncnc2sc(-c3cc4ccccc4s3)cc12`, the Kd is 910 nM in data set [6], 9800 nM in data set [3] and 290 nM in data set [8]. Further, the values for the IC50 in data set [7], in data set [2] and in data set [1] were above 10000 nM, 4800 nM and above 10000 nM, respectively.

For the compound `O=C(O)CSc1ncnc2cc(-c3cccc(N4CCOCC4)c3)sc12`, the remaining at 0.5 h, 100 µM in data set [4] turned out to be 73%. Moreover, the IC50 in data set [2] stood at 83 nM; in data set [1], 2900 nM. Besides, the solubility kinetic in data set [5] came out at 54 µg/mL (≈ 139 µM).

As to `CSc1ccc(-c2cc3ncnc(SCC(N)=O)c3s2)cc1`, in data set [1], the IC50 is above 10000 nM.

As to `CCOC(=O)c1ccc(-c2cc3ncnc(SCC(=O)O)c3s2)cc1`, the remaining at 0.5 h, 100 µM in data set [4] was 0%. In addition, the results for the IC50 in data set [2] and in data set [1] were 40 nM and 870 nM, respectively. Moreover, the solubility kinetic in data set [5] came to 59 µg/mL (≈ 158 µM).

For `O=C(O)CSc1ncnc2cc(-c3ccc(C(F)(F)F)cc3)sc12`, the remaining at 0.5 h, 100 µM in data set [4] stood at 88%. Also, the values for the IC50 in data set [2] and in data set [1] were 33 nM and 340 nM, respectively. In data set [5], the solubility kinetic was found to be 57 µg/mL (≈ 154 µM).

Regarding `O=C(O)CSc1ncnc2cc(-c3cccc(OC(F)(F)F)c3)sc12`, the IC50 in data set [2] turned out to be 280 nM; in data set [1] it was 500 nM.

For `O=C(O)CSc1ncnc2cc(-c3ccccc3F)sc12`, the remaining at 0.5 h, 100 µM in data set [4] was found to be 45%. The IC50 in data set [2] is 60 nM; in data set [1], 1200 nM. In data set [5], the solubility kinetic stood at 51 µg/mL (≈ 159 µM).

For the compound `CSc1cccc(-c2cc3ncnc(SCC(=O)O)c3s2)c1`, the results for the IC50 in data set [2] and in data set [1] were 49 nM and 500 nM, respectively.

For `O=C(O)CSc1ncnc2cc(-c3cccs3)sc12`, in data set [4], the remaining at 0.5 h, 100 µM was 47%. For the same compound, the IC50 in data set [2] is 63 nM; in data set [1] it was 650 nM. Moreover, the solubility kinetic in data set [5] came out at 56 µg/mL (≈ 182 µM).

Consider `COc1ccccc1-c1cc2c(SCC(=O)O)ncnc2s1`, for which the half-inhibitory concentration (IC50) in data set [2] was 880 nM; in data set [1] it was above 10000 nM.

Regarding `O=C(O)CSc1ncnc2cc(-c3ccc(OCc4ccccc4)cc3)sc12`, the IC50 was 110 nM in data set [2] and above 10000 nM in data set [1].

Turning to `C=Cc1ccc(-c2cc3ncnc(SCC(=O)O)c3s2)cc1`, the remaining at 0.5 h, 100 µM in data set [4] turned out to be 38%. For the same compound, the IC50 in data set [2] is 28 nM; in data set [1] it was 120 nM. Further, the solubility kinetic in data set [5] came to 74 µg/mL (≈ 225 µM).

As for `C[S+]([O-])c1ccc(-c2cc3ncnc(SCC(=O)O)c3s2)cc1` (stereo not drawn), the IC50 in data set [2] is 7 nM; in data set [1], above 10000 nM.

`CSc1cccc(-c2cc3c(SCC(=O)O)ncnc3s2)c1` registered an IC50 in data set [1] above 10000 nM.
